{
  "source": "patent US8765464B2",
  "about": "“Kit for culturing cells comprising tube with flat wall, extracellular matrix and culture medium” (Kurashiki Boseki Kabushiki Kaisha, priority 2001, dated 2014)",
  "key": {"[1]": {"system": "C-1, A-549, MKN-28, HFL-1 and WI-38 cell lines", "assay": "Confirmation test of cell toxicity according to vancomycin amount: cell proliferativity in preliminary culture step, cell lines", "format": "cell-based, human", "conditions": "various cells, after 48 hours from the beginning of the culture", "protocol": "(§1) Specifically, it is confirmed whether the vancomycin in the culture medium of the preliminary culture step has a unfavorable influence upon the cell proliferativity in the preliminary culture step, the cell proliferativity in the proliferative culture step, and the anticancer agent sensitivity test results or not, and then the following test was carried out. Herein, the unfavorable influence means such an influence as causes to decrease the cell proliferativity and success rate of the anticancer agent sensitivity test.\n(§2) As to the test material and the number of cells as seeded (test material/number of cells as seeded), the following were used: • C-1 (human colon cancer cell line)/1×10^5 cells/well • A-549 (human lung cancer cell line)/1×10^5 cells/well • MKN-28 human stomach cancer cell line)/1×10^5 cells/well • HFL-1 and WI-38 (human fibroblast cells line)/1×10^5 cells/well • Lung-k human primary lung cancer cells)/5×10^5 cells/well (in the preliminary culture step) or 2×10^5 cells/well (in the proliferative culture step) […]\n(§3) […] After the cells were counted with a blood-cell counter board, the cell number per 1 ml of the culture medium was calculated, and the cell proliferativity in the preliminary culture step was observed."}, "[2]": {"system": "C-1, A-549, MKN-28, HFL-1, WI-38 cell lines and Lung-k primary lung cancer cells", "assay": "Confirmation test of cell toxicity according to vancomycin amount: cell proliferativity in proliferative culture step", "format": "cell-based, human", "conditions": "vancomycin not more than 3.0 mg/ml added in the preliminary culture step; after 7 days culture", "from_the_text": "(§4) As to the test material and the number of cells as seeded (test material/number of cells as seeded), the following were used: • C-1 (human colon cancer cell line)/1×10^5 cells/well • A-549 (human lung cancer cell line)/1×10^5 cells/well • MKN-28 human stomach cancer cell line)/1×10^5 cells/well • HFL-1 and WI-38 (human fibroblast cells line)/1×10^5 cells/well • Lung-k human primary lung cancer cells)/5×10^5 cells/well (in the preliminary culture step) or 2×10^5 cells/well (in the proliferative culture step)\n(§5) The culture medium in the preliminary culture step was a culture medium as used in Example 1, and only the concentrations of the vancomycin produced by Wako Pure Chemicals Co., Ltd.) therein were settled in the following conditions: 0.1 mg/ml, 0.5 mg/ml, 1.0 mg/ml, 1.5 mg/ml, 2.0 mg/ml, 2.5 mg/ml, 3.0 mg/ml, 4.0 mg/ml, and 5.0 mg/ml, and tests were carried out in each condition. […]\n(§6) (5) The resultant test plate is quantitatively analyzed with an image analyzer, and then the unfavorable influence upon the cell proliferativity and the anticancer agent sensitivity test results (antitumor effect T/C (%): relative proliferation ratio T/C (%) between a group non-treated with anticancer agents (C) and a group treated with anticancer agents (T), in the case where the ratio is not more than 50%, it is defined as having a sensitivity.) are observed. […]"}, "[3]": {"system": "Lung-k human primary lung cancer cells", "assay": "Confirmation test of cell toxicity according to vancomycin amount: preliminary culture step, primary cells", "format": "cell-based", "conditions": "human primary culturing cells, after 48 hours from the beginning of the culture", "protocol": "as §1, §2, §3"}, "[4]": {"system": "C-1, A-549, MKN-28, HFL-1, WI-38 cell lines and Lung-k primary lung cancer cells", "assay": "Influence of vancomycin amount upon anticancer agent sensitivity test results", "format": "cell-based, human", "conditions": "vancomycin not more than 3.0 mg/ml added in the preliminary culture step; Taxol, Taxotere, Gemcitabine, Navelbine", "from_the_text": "as §4, §5, §6"}},
  "note": "Counter-ions that a name gives are not always drawn.",
  "data": [
    {"smiles": "CN[C@H](CC(C)C)C(=O)N[C@H]1C(=O)N[C@@H](CC(N)=O)C(=O)N[C@H]2C(=O)N[C@H]3C(=O)N[C@H](C(=O)N[C@H](C(=O)O)c4cc(O)cc(O)c4-c4cc3ccc4O)[C@H](O)c3ccc(c(Cl)c3)Oc3cc2cc(c3O[C@@H]2O[C@H](CO)[C@@H](O)[C@H](O)[C@H]2O[C@H]2C[C@](C)(N)[C@H](O)[C@H](C)O2)Oc2ccc(cc2Cl)[C@H]1O", "note": "[vancomycin, vancomycin hydrochloride]", "values": [
      {"measurement": "vancomycin concentration at which the cell proliferation was as good as without vancomycin", "setting": "[1]", "value": "not more than 2.0 mg/ml"},
      {"measurement": "unfavorable influence upon the cell proliferativity in the proliferative culture step", "setting": "[2]", "value": "not found"},
      {"measurement": "vancomycin concentration at which the cell number was maintained and cell toxicity (cells-killing action) was not observed", "setting": "[3]", "value": "not more than 3.0 mg/ml"},
      {"measurement": "unfavorable influence upon the anticancer agent sensitivity test results (antitumor effect T/C (%))", "setting": "[4]", "value": "no unfavorable influence"}
    ]}
  ]
}
